This passage reports DC50 and EC50 results from patent publication US20250320206A1, “STAT6 DEGRADERS” (Gilead Sciences, Inc., priority 2024, published 2025).

The term DC50 denotes the concentration at which degradation of the target reaches its halfway point. In general, EC50 refers to the concentration at which the effect is half-maximal. A higher EC50 goes with a need for much substance.

For one assay, the target named is T1, STAT6 (Homo sapiens, UniProt P42226).
T1 construct: These cells express endogenous STAT6; host or cells: HeLa LgBiT clone 4.14
T1 sequence (P42226 1-847): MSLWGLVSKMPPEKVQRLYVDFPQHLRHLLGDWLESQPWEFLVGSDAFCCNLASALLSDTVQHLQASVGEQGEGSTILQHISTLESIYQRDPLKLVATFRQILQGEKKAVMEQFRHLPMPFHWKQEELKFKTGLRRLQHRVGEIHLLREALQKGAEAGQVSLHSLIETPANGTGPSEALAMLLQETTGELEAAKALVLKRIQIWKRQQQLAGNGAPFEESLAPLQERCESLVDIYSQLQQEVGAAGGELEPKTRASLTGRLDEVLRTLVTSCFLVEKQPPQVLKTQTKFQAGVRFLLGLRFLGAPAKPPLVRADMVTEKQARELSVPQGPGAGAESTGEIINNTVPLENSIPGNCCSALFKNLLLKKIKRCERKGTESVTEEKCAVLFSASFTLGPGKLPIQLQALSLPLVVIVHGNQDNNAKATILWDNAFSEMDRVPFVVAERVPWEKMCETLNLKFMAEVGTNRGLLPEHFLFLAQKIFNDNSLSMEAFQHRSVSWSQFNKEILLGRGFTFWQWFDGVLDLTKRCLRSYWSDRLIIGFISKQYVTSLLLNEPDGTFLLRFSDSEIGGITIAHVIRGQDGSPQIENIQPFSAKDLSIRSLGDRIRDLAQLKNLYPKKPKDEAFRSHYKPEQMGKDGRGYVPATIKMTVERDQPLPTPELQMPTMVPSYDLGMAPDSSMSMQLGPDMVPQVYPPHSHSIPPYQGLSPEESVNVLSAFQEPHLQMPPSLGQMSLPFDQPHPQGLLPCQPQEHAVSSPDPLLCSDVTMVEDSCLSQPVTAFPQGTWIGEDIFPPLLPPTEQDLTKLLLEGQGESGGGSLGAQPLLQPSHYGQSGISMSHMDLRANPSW
The assay is described as follows: Stat6 Degrader Assay (HiBiT based, HeLa LgBiT clone 4.14). The assay is classed as cell-based. Particulars: HeLa LgBiT clone 4.14 HiBiT-STAT6, 4-24 h incubation; values given for compounds with >80% Emax; geometric mean; read-out: STAT6 degradation DC50. The essentials:
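Luminescence from HiBiT-STAT6 complementing stably expressed LgBiT in HeLa clone 4.14 reports remaining STAT6 protein. Cells (5000/well) exposed to compound for 4-24 h at 37° C; read 0.5 h after Nano-Glo addition. 100% degradation window set with 50 μM terfenadine; percent degradation plotted against concentration.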
(In general: With HiBiT, luminescence reflects the tagged protein that the partner subunit can reach.)

For assay [1], the system named is Eotaxin-3 release in human whole blood stimulated with IL-4. The assay is described as follows: Human Whole Blood Eotaxin-3 Assay (IL-4 stimulated eotaxin-3 release). In kind it is cell-based. As to conditions: IL-4 stimulation, 48 h, values given for compounds with >80% Emax, geometric mean. The essentials:
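Eotaxin-3 (CCL26) release measured by MSD kit in plasma supernatant after 48 h IL-4 stimulation ([…]) of human whole blood. Compounds added in triplicate 4-fold dilutions 2 h before stimulation; 0.5% DMSO final, 37° C, 5% CO2.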

For the molecule `CNc1cc(=O)n(-c2ccnc3c2cc(CN2CCC(c4c(F)cc(C(=O)N5CCC(CN6CCN(Cc7ccc8c(c7)C7(CC7)C(=O)N8C7CCC(=O)NC7=O)C[C@@H]6C)CC5)cc4F)CC2)n3C)cc1F` (stereo partly drawn) [Example 3u219, 3-(5′-(((S)-4-((1-(3,5-difluoro-4-(1-((4-(5-fluoro-4-(methylamino)-2-oxopyridin-1 (2H)-yl)-1-methyl-1H-pyrrolo[2,3-b]pyridin-2-yl)methyl)piperidin-4-yl)benzoyl)piperidin-4-yl)methyl)-3-methylpiperazin-1-yl)methyl)-2′-oxospiro[cyclopropane-1,3′-indolin]-1′-yl)piperidine-2,6-dione], the DC50 at STAT6 stood at 1.8 nM. This molecule returned an EC50 in assay [1] of 2.2 nM.
The matching figures for `CNc1ccn(-c2ccnc3c2cc(CN2CCC(c4c(F)cc(C(=O)N5CCC(CN6CCN(Cc7ccc8c(c7)C7(CC7)C(=O)N8C7CCC(=O)NC7=O)C[C@@H]6C)CC5)cc4F)CC2)n3C)c(=O)c1` (stereo partly drawn) [Example 3u222, 3-(5′-(((S)-4-((1-(3,5-difluoro-4-(1-((1-methyl-4-(4-(methylamino)-2-oxopyridin-1 (2H)-yl)-1H-pyrrolo[2,3-b]pyridin-2-yl)methyl)piperidin-4-yl)benzoyl)piperidin-4-yl)methyl)-3-methylpiperazin-1-yl)methyl)-2′-oxospiro[cyclopropane-1,3′-indolin]-1′-yl)piperidine-2,6-dione]: 1.5 nM and 1.1 nM.
On to `CNc1ccn(-c2ccnc3c2cc([C@H](C)N2CC=C(c4c(C)cc(C(=O)N(C)c5ccc(C6CCN(Cc7ccc8c(c7)n(C)c(=O)n8C7CCC(=O)NC7=O)CC6)cc5)cc4F)CC2)n3C)c(=O)c1` (stereo partly drawn) [Example 3u225, N-(4-(1-((1-(2,6-dioxopiperidin-3-yl)-3-methyl-2-oxo-2,3-dihydro-1H-benzo[d]-imidazol-5-yl)methyl)piperidin-4-yl)phenyl)-3-fluoro-N,5-dimethyl-4-(1-((S)-1-(1-methyl-4-(4-(methyl-amino)-2-oxopyridin-1 (2H)-yl)-1H-pyrrolo[2,3-b]pyridin-2-yl)ethyl)-1,2,3,6-tetrahydropyridin-4-yl)-benzamide], for which, at STAT6, the DC50 was determined as 0.1 nM. The EC50 in assay [1] is 0.3 nM.
The matching figures for `CNc1ccn(-c2ccnc3c2cc(CN2CC=C(c4c(C)cc(C(=O)N(C)c5ccc(C6CCN(Cc7ccc8c(c7)C(C)(C)C(=O)N8C7CCC(=O)NC7=O)CC6)cc5)cc4F)CC2)n3C)c(=O)c1` (stereo not shown) [Example 3u228, N-(4-(1-((1-(2,6-dioxopiperidin-3-yl)-3,3-dimethyl-2-oxoindolin-5-yl)methyl)-piperidin-4-yl)phenyl)-3-fluoro-N,5-dimethyl-4-(1-((1-methyl-4-(4-(methylamino)-2-oxopyridin-1 (2H)-yl)-1H-pyrrolo[2,3-b]pyridin-2-yl)methyl)-1,2,3,6-tetrahydropyridin-4-yl)benzamide]: 0.2 nM and 1.2 nM.
On the same counts, the results for `CNc1ccn(-c2ccnc3c2cc([C@H](C)N2CC=C(c4c(C)cc(C(=O)N(C)c5ccc(C6CCN(Cc7ccc8c(c7)n(C)c(=O)n8C7CCC(=O)NC7=O)CC6)nc5)cc4F)CC2)n3C)c(=O)c1` (stereo partly drawn) [Example 3u231, N-(6-(1-((1-(2,6-dioxopiperidin-3-yl)-3-methyl-2-oxo-2,3-dihydro-1H-benzo[d]-imidazol-5-yl)methyl)piperidin-4-yl)pyridin-3-yl)-3-fluoro-N,5-dimethyl-4-(1-((S)-1-(1-methyl-4-(4-(methylamino)-2-oxopyridin-1 (2H)-yl)-1H-pyrrolo[2,3-b]pyridin-2-yl)ethyl)-1,2,3,6-tetrahydropyridin-4-yl)benzamide] are 0.1 nM and 0.8 nM.
The matching figures for `CNc1ccn(-c2ccnc3c2cc([C@H](C)N2CC=C(c4c(C)cc(C(=O)N(C)c5ccc(C6CCN(Cc7ccc8c(c7)C(C)(C)C(=O)N8C7CCC(=O)NC7=O)CC6)cc5)cc4F)CC2)n3C)c(=O)c1` (stereo partly drawn) [Example 3u232, N-(4-(1-((1-(2,6-dioxopiperidin-3-yl)-3,3-dimethyl-2-oxoindolin-5-yl)methyl)-piperidin-4-yl)phenyl)-3-fluoro-N,5-dimethyl-4-(1-((S)-1-(1-methyl-4-(4-(methylamino)-2-oxopyridin-1 (2H)-yl)-1H-pyrrolo[2,3-b]pyridin-2-yl)ethyl)-1,2,3,6-tetrahydropyridin-4-yl)benzamide]: 0.1 nM and 0.8 nM.
As for `CNc1cc(=O)n(-c2ccnc3c2cc([C@H](C)N2CC=C(c4c(C)cc(C(=O)N(C)c5ccc(C6CCN(Cc7ccc8c(c7)C(C)(C)C(=O)N8C7CCC(=O)NC7=O)CC6)cc5)cc4F)CC2)n3C)cc1F` (stereo partly drawn) [Example 3u233, N-(4-(1-((1-(2,6-dioxopiperidin-3-yl)-3,3-dimethyl-2-oxoindolin-5-yl)methyl)piperidin-4-yl)phenyl)-3-fluoro-4-(1-((S)-1-(4-(5-fluoro-4-(methylamino)-2-oxopyridin-1 (2H)-yl)-1-methyl-1H-pyrrolo[2,3-b]pyridin-2-yl)ethyl)-1,2,3,6-tetrahydropyridin-4-yl)-N,5-dimethylbenzamide], the DC50 on STAT6 turned out to be 0.2 nM. This molecule also displayed an EC50 in assay [1] of 1.3 nM.
The matching figures for `CNc1cc(=O)n(-c2ccnc3c2cc([C@H](C)N2CC=C(c4c(C)cc(C(=O)N(C)c5ccc(C6CCN(Cc7ccc8c(c7)C7(CC7)C(=O)N8C7CCC(=O)NC7=O)CC6)cc5)cc4F)CC2)n3C)cc1F` (stereo partly drawn) [Example 3u236, N-(4-(1-((1′-(2,6-dioxopiperidin-3-yl)-2′-oxospiro[cyclopropane-1,3′-indolin]-5′-yl)methyl)piperidin-4-yl)phenyl)-3-fluoro-4-(1-((S)-1-(4-(5-fluoro-4-(methylamino)-2-oxopyridin-1 (2H)-yl)-1-methyl-1H-pyrrolo[2,3-b]pyridin-2-yl)ethyl)-1,2,3,6-tetrahydropyridin-4-yl)-N,5-dimethylbenzamide]: 0.1 nM and 0.9 nM.
On the same counts, the results for `CNc1cc(=O)n(-c2ccnc3c2cc([C@H](C)N2CC=C(c4c(C)cc(C(=O)N(C)c5ccc(N6CCN(Cc7ccc8c(c7)n(C)c(=O)n8C7CCC(=O)NC7=O)CC6)nc5)cc4F)CC2)n3C)cc1F` (stereo partly drawn) [Example 3u237, N-(6-(4-((1-(2,6-dioxopiperidin-3-yl)-3-methyl-2-oxo-2,3-dihydro-1H-benzo[d]-imidazol-5-yl)methyl)piperazin-1-yl)pyridin-3-yl)-3-fluoro-4-(1-((S)-1-(4-(5-fluoro-4-(methylamino)-2-oxopyridin-1 (2H)-yl)-1-methyl-1H-pyrrolo[2,3-b]pyridin-2-yl)ethyl)-1,2,3,6-tetrahydropyridin-4-yl)-N,5-dimethylbenzamide] are 0.1 nM and 1.7 nM.
Turning to `CNc1ccn(-c2ccnc3c2cc([C@H](C)N2CC=C(c4c(C)cc(C(=O)N(C)C5CCC(N6CCN(Cc7ccc8c(c7)n(C)c(=O)n8C7CCC(=O)NC7=O)CC6)CC5)cc4F)CC2)n3C)c(=O)c1` (stereo partly drawn) [Example 3u238, N-(4-(4-((1-(2,6-dioxopiperidin-3-yl)-3-methyl-2-oxo-2,3-dihydro-1H-benzo[d]-imidazol-5-yl)methyl)piperazin-1-yl)cyclohexyl)-3-fluoro-N,5-dimethyl-4-(1-((S)-1-(1-methyl-4-(4-(methylamino)-2-oxopyridin-1 (2H)-yl)-1H-pyrrolo[2,3-b]pyridin-2-yl)ethyl)-1,2,3,6-tetrahydropyridin-4-yl)benzamide], on STAT6, the DC50 came to 1.4 nM. The EC50 in assay [1] came out at 3.2 nM.
The matching figures for `CNc1cc(=O)n(-c2ccnc3c2cc([C@H](C)N2CC=C(c4c(C)cc(C(=O)N(C)c5ccc(N6CCN(Cc7ccc8c(c7)C7(CC7)C(=O)N8C7CCC(=O)NC7=O)CC6)nc5)cc4F)CC2)n3C)cc1F` (stereo partly drawn) [Example 3u239, N-(6-(4-((1′-(2,6-dioxopiperidin-3-yl)-2′-oxospiro[cyclopropane-1,3′-indolin]-5′-yl)-methyl)piperazin-1-yl)pyridin-3-yl)-3-fluoro-4-(1-((S)-1-(4-(5-fluoro-4-(methylamino)-2-oxopyridin-1 (2H)-yl)-1-methyl-1H-pyrrolo[2,3-b]pyridin-2-yl)ethyl)-1,2,3,6-tetrahydropyridin-4-yl)-N,5-dimethyl-benzamide]: 0.1 nM and 1.2 nM.
